Assays:
Type in all cases: functional
UACC-257 [1] = assay: Growth inhibition of human UACC257 cells assessed as cell growth at 10 uM by sulforhodamine B assay; conditions: read-out: Activity
MDA-MB-468 = assay: Growth inhibition of human MDA-MB-468 cells assessed as cell growth at 10 uM by sulforhodamine B assay; conditions: read-out: Activity
MOLT-4 = assay: Growth inhibition of human MOLT4 cells assessed as cell growth at 10 uM by sulforhodamine B assay; conditions: read-out: Activity
LOX IMVI = assay: Growth inhibition of human LOXIMVI cells assessed as cell growth at 10 uM by sulforhodamine B assay; conditions: read-out: Activity
BT-549 [2] = assay: Growth inhibition of human BT549 cells assessed as cell growth at 10 uM by sulforhodamine B assay; conditions: read-out: Activity
HOP-62 = assay: Growth inhibition of human HOP62 cells assessed as growth inhibition at 10 uM by sulforhodamine B assay; conditions: read-out: GI
RXF 393 [3] = assay: Growth inhibition of human RXF393 cells assessed as cell growth at 10 uM by sulforhodamine B assay; conditions: read-out: Activity
HCT-116 = assay: Growth inhibition of human HCT116 cells assessed as cell growth at 10 uM by sulforhodamine B assay; conditions: read-out: Activity
KM12 = assay: Growth inhibition of human KM12 cells assessed as cell growth at 10 uM by sulforhodamine B assay; conditions: read-out: Activity
NCI-H460 = assay: Growth inhibition of human NCI-H460 cells assessed as cell growth at 10 uM by sulforhodamine B assay; conditions: read-out: Activity
MCF7 = assay: Growth inhibition of human MCF7 cells assessed as growth inhibition at 10 uM by sulforhodamine B assay; conditions: read-out: GI
OVCAR-4 = assay: Growth inhibition of human OVCAR4 cells assessed as cell growth at 10 uM by sulforhodamine B assay; conditions: read-out: Activity
Malme-3M [4] = assay: Growth inhibition of human MALME-3M cells assessed as growth inhibition at 10 uM by sulforhodamine B assay; conditions: read-out: GI
NCI-H23 = assay: Growth inhibition of human NCI-H23 cells assessed as cell growth at 10 uM by sulforhodamine B assay; conditions: read-out: Activity
UACC-257 [5] = assay: Growth inhibition of human UACC257 cells assessed as growth inhibition at 10 uM by sulforhodamine B assay; conditions: read-out: GI
SF-268 = assay: Growth inhibition of human SF268 cells assessed as cell growth at 10 uM by sulforhodamine B assay; conditions: read-out: Activity
Malme-3M [6] = assay: Growth inhibition of human MALME-3M cells assessed as cell growth at 10 uM by sulforhodamine B assay; conditions: read-out: Activity
[7] = Growth inhibition of human EKVX cells assessed as growth inhibition at 10 uM by sulforhodamine B assay; conditions: read-out: GI
T47D = assay: Growth inhibition of human T47D cells assessed as cell growth at 10 uM by sulforhodamine B assay; conditions: read-out: Activity
SK-MEL-5 = assay: Growth inhibition of human SK-MEL-5 cells assessed as cell growth at 10 uM by sulforhodamine B assay; conditions: read-out: Activity
SR [8] = assay: Growth inhibition of human SR cells assessed as cell growth at 10 uM by sulforhodamine B assay; conditions: read-out: Activity
ACHN = assay: Growth inhibition of human ACHN cells assessed as cell growth at 10 uM by sulforhodamine B assay; conditions: read-out: Activity
SF-539 = assay: Growth inhibition of human SF539 cells assessed as growth inhibition at 10 uM by sulforhodamine B assay; conditions: read-out: GI
[9] = Growth inhibition of human Hs 578T cells assessed as cell growth at 10 uM by sulforhodamine B assay; conditions: read-out: Activity
RXF 393 [10] = assay: Growth inhibition of human RXF393 cells assessed as growth inhibition at 10 uM by sulforhodamine B assay; conditions: read-out: GI
A549 = assay: Growth inhibition of human A549/ATCC cells assessed as growth inhibition at 10 uM by sulforhodamine B assay; conditions: read-out: GI
HOP-92 [11] = assay: Growth inhibition of human HOP92 cells assessed as cell growth at 10 uM by sulforhodamine B assay; conditions: read-out: Activity
IGROV-1 [12] = assay: Growth inhibition of human IGROV1 cells assessed as cell growth at 10 uM by sulforhodamine B assay; conditions: read-out: Activity
K562 = assay: Growth inhibition of human K562 cells assessed as growth inhibition at 10 uM by sulforhodamine B assay; conditions: read-out: GI
SN12C = assay: Growth inhibition of human SN12C cells assessed as cell growth at 10 uM by sulforhodamine B assay; conditions: read-out: Activity
U-251 = assay: Growth inhibition of human U251 cells assessed as cell growth at 10 uM by sulforhodamine B assay; conditions: read-out: Activity
MDA-MB-435 = assay: Growth inhibition of human MDA-MB-435 cells assessed as growth inhibition at 10 uM by sulforhodamine B assay; conditions: read-out: GI
M14 = assay: Growth inhibition of human M14 cells assessed as cell growth at 10 uM by sulforhodamine B assay; conditions: read-out: Activity
SNB-75 [13] = assay: Growth inhibition of human SNB75 cells assessed as growth inhibition at 10 uM by sulforhodamine B assay; conditions: read-out: GI
BT-549 [14] = assay: Growth inhibition of human BT549 cells assessed as growth inhibition at 10 uM by sulforhodamine B assay; conditions: read-out: GI
DU-145 = assay: Growth inhibition of human DU145 cells assessed as growth inhibition at 10 uM by sulforhodamine B assay; conditions: read-out: GI
SR [15] = assay: Growth inhibition of human SR cells assessed as growth inhibition at 10 uM by sulforhodamine B assay; conditions: read-out: GI
SNB-75 [16] = assay: Growth inhibition of human SNB75 cells assessed as cell growth at 10 uM by sulforhodamine B assay; conditions: read-out: Activity
COLO 205 = assay: Growth inhibition of human COLO205 cells assessed as growth inhibition at 10 uM by sulforhodamine B assay; conditions: read-out: GI
NCI-H322M = assay: Growth inhibition of human NCI-H322M cells assessed as cell growth at 10 uM by sulforhodamine B assay; conditions: read-out: Activity
MDA-MB-231 = assay: Growth inhibition of human MDA-MB-231 cells assessed as growth inhibition at 10 uM by sulforhodamine B assay; conditions: read-out: GI
IGROV-1 [17] = assay: Growth inhibition of human IGROV1 cells assessed as growth inhibition at 10 uM by sulforhodamine B assay; conditions: read-out: GI
SW-620 = assay: Growth inhibition of human SW620 cells assessed as growth inhibition at 10 uM by sulforhodamine B assay; conditions: read-out: GI
UACC-62 = assay: Growth inhibition of human UACC62 cells assessed as growth inhibition at 10 uM by sulforhodamine B assay; conditions: read-out: GI
UO-31 = assay: Growth inhibition of human UO31 cells assessed as growth inhibition at 10 uM by sulforhodamine B assay; conditions: read-out: GI
CCRF-CEM = assay: Growth inhibition of human CCRF-CEM cells assessed as growth inhibition at 10 uM by sulforhodamine B assay; conditions: read-out: GI
HL-60(TB) [18] = assay: Growth inhibition of human HL-60(TB) cells assessed as growth inhibition at 10 uM by sulforhodamine B assay; conditions: read-out: GI
HL-60(TB) [19] = assay: Growth inhibition of human HL-60(TB) cells assessed as cell growth at 10 uM by sulforhodamine B assay; conditions: read-out: Activity
HOP-92 [20] = assay: Growth inhibition of human HOP92 cells assessed as growth inhibition at 10 uM by sulforhodamine B assay; conditions: read-out: GI

Compound: CC1(C)C[C@@H](O)[C@]2(C(=O)O)CC[C@]3(C)C(=CC[C@@H]4[C@@]5(C)C/C(=C\C=C\c6ccccc6)C(=O)C(C)(C)[C@@H]5CC[C@]43C)[C@@H]2C1
- growth at 10 µM (UACC-257 [1]): 62%
- growth at 10 µM (MDA-MB-468): 72.6%
- growth at 10 µM (MOLT-4): 44.4%
- growth at 10 µM (LOX IMVI): 61.4%
- growth at 10 µM (BT-549 [2]): 70%
- inhibition of growth at 10 µM (HOP-62): 37.2%
- growth at 10 µM (RXF 393 [3]): 84.1%
- growth at 10 µM (HCT-116): 17.5%
- growth at 10 µM (KM12): 31.8%
- growth at 10 µM (NCI-H460): 45.8%
- inhibition of growth at 10 µM (MCF7): 66.2%
- growth at 10 µM (OVCAR-4): 54.2%
- inhibition of growth at 10 µM (Malme-3M [4]): 15.5%
- growth at 10 µM (NCI-H23): 59.7%
- inhibition of growth at 10 µM (UACC-257 [5]): 38%
- growth at 10 µM (SF-268): 70.7%
- growth at 10 µM (Malme-3M [6]): 84.5%
- inhibition of growth at 10 µM [7]: 60.6%
- growth at 10 µM (T47D): 37.6%
- growth at 10 µM (SK-MEL-5): 73.7%
- growth at 10 µM (SR [8]): 62.6%
- growth at 10 µM (ACHN): 41.9%
- inhibition of growth at 10 µM (SF-539): < 10%
- growth at 10 µM [9]: 58.4%
- inhibition of growth at 10 µM (RXF 393 [10]): 15.9%
- inhibition of growth at 10 µM (A549): 77.3%
- growth at 10 µM (HOP-92 [11]): 49.2%
- growth at 10 µM (IGROV-1 [12]): 60.8%
- inhibition of growth at 10 µM (K562): 67.6%
- growth at 10 µM (SN12C): 45.5%
- growth at 10 µM (U-251): 33.6%
- inhibition of growth at 10 µM (MDA-MB-435): 27.7%
- growth at 10 µM (M14): 72.9%
- inhibition of growth at 10 µM (SNB-75 [13]): 27.9%
- inhibition of growth at 10 µM (BT-549 [14]): 30%
- inhibition of growth at 10 µM (DU-145): 28.8%
- inhibition of growth at 10 µM (SR [15]): 37.4%
- growth at 10 µM (SNB-75 [16]): 72.1%
- inhibition of growth at 10 µM (COLO 205): < 10%
- growth at 10 µM (NCI-H322M): 71.9%
- inhibition of growth at 10 µM (MDA-MB-231): 31.1%
- inhibition of growth at 10 µM (IGROV-1 [17]): 39.2%
- inhibition of growth at 10 µM (SW-620): 44.2%
- inhibition of growth at 10 µM (UACC-62): 49.6%
- inhibition of growth at 10 µM (UO-31): 59.7%
- inhibition of growth at 10 µM (CCRF-CEM): 80.1%
- inhibition of growth at 10 µM (HL-60(TB) [18]): 61.2%
- growth at 10 µM (HL-60(TB) [19]): 38.8%
- inhibition of growth at 10 µM (HOP-92 [20]): 50.8%

Compound: COc1cc(/C=C2\C[C@]3(C)[C@H]4CC=C5[C@@H]6CC(C)(C)C[C@@H](O)[C@]6(C(=O)O)CC[C@@]5(C)[C@]4(C)CC[C@H]3C(C)(C)C2=O)ccc1O
- growth at 10 µM (UACC-257 [1]): 91.4%
- growth at 10 µM (MDA-MB-468): 103%
- growth at 10 µM (MOLT-4): 63.3%
- growth at 10 µM (LOX IMVI): 88.4%
- growth at 10 µM (BT-549 [2]): 106%
- inhibition of growth at 10 µM (HOP-62): < 10%
- growth at 10 µM (RXF 393 [3]): 109%
- growth at 10 µM (HCT-116): 84.8%
- growth at 10 µM (KM12): 84%
- growth at 10 µM (NCI-H460): 102%
- inhibition of growth at 10 µM (MCF7): 22.5%
- growth at 10 µM (OVCAR-4): 83.8%
- inhibition of growth at 10 µM (Malme-3M [4]): 18.9%
- growth at 10 µM (NCI-H23): 85%
- inhibition of growth at 10 µM (UACC-257 [5]): < 10%
- growth at 10 µM (SF-268): 109%
- growth at 10 µM (Malme-3M [6]): 81.1%
- inhibition of growth at 10 µM [7]: 11.5%
- growth at 10 µM (T47D): 81.1%
- growth at 10 µM (SK-MEL-5): 88.1%
- growth at 10 µM (SR [8]): 87.1%
- growth at 10 µM (ACHN): 85.6%
- inhibition of growth at 10 µM (SF-539): < 10%
- growth at 10 µM [9]: 94%
- inhibition of growth at 10 µM (RXF 393 [10]): < 10%
- inhibition of growth at 10 µM (A549): 28.2%
- growth at 10 µM (HOP-92 [11]): 70.9%
- growth at 10 µM (IGROV-1 [12]): 97.8%
- inhibition of growth at 10 µM (K562): 28.8%
- growth at 10 µM (SN12C): 87.5%
- growth at 10 µM (U-251): 84.7%
- inhibition of growth at 10 µM (MDA-MB-435): < 10%
- growth at 10 µM (M14): 103%
- inhibition of growth at 10 µM (SNB-75 [13]): 17.9%
- inhibition of growth at 10 µM (BT-549 [14]): < 10%
- inhibition of growth at 10 µM (DU-145): < 10%
- inhibition of growth at 10 µM (SR [15]): 12.9%
- growth at 10 µM (SNB-75 [16]): 82.1%
- inhibition of growth at 10 µM (COLO 205): < 10%
- growth at 10 µM (NCI-H322M): 97.5%
- inhibition of growth at 10 µM (MDA-MB-231): < 10%
- inhibition of growth at 10 µM (IGROV-1 [17]): < 10%
- inhibition of growth at 10 µM (SW-620): < 10%
- inhibition of growth at 10 µM (UACC-62): 25%
- inhibition of growth at 10 µM (UO-31): 24.1%
- inhibition of growth at 10 µM (CCRF-CEM): 18%
- inhibition of growth at 10 µM (HL-60(TB) [18]): 28.9%
- growth at 10 µM (HL-60(TB) [19]): 71.1%
- inhibition of growth at 10 µM (HOP-92 [20]): 29.1%
